# Where a name gives a salt, the structure may show the parent alone.
# Molecular target: T1, TAAR1 (Mus musculus, UniProt Q923Y8)
# T1 construct: expressed in transfected cells; host or cells: HEK293 (ATCC # CRL-1573), stably transfected with pIRESneo2 expression plasmid; membranes prepared
# Assay: Radioligand binding assay on membranes of HEK293 cells stably expressing TAAR1
# Conditions: mouse TAAR1; radioligand [3H]-rac-2-(1,2,3,4-tetrahydro-1-naphthyl)-2-imidazoline at 60 nM; 4° C., 30 min
# Protocol: For the construction of expression plasmids the coding sequences of human, rat and mouse TAAR 1 were amplified from genomic DNA essentially as described by Lindemann et al.. The Expand High Fidelity PCR System (Roche Diagnostics) was used with 1.5 mM Mg^2+ and purified PCR products were cloned into pCR2.1-TOPO cloning vector (Invitrogen) following the instructions of the manufacturer. PCR products were subcloned into the pIRESneo2 vector (BD Clontech, Palo Alto, Calif.), and expression vectors were sequence verified before introduction in cell lines.
# For the generation of stably transfected cell lines HEK293 cells were transfected with the pIRESneo2 expression plasmids containing the TAAR coding sequences (described above) with Lipofectamine 2000 (Invitrogen) according to the instructions of the manufacturer, and 24 hrs post transfection the culture medium was supplemented with 1 mg/ml G418 (Sigma, Buchs, Switzerland). After a culture period of about 10 d clones were isolated, expanded and tested for responsiveness to trace amines (all compounds purchased from Sigma) with the cAMP Biotrak Enzyme immunoassay (EIA) System (Amersham) following the non-acetylation EIA procedure provided by the manufacturer.
# Cells at confluence were rinsed with ice-cold phosphate buffered saline without Ca^2+ and Mg^2+ containing 10 mM EDTA and pelleted by centrifugation at 1000 rpm for 5 min at 4° C. The pellet was then washed twice with ice-cold phosphate buffered saline and cell pellet was frozen immediately by immersion in liquid nitrogen and stored until use at −80° C. Cell pellet was then suspended in 20 ml HEPES-NaOH (20 mM), pH 7.4 containing 10 mM EDTA, and homogenized with a Polytron (PT 3000, Kinematica) at 10,000 rpm for 10 s. The homogenate was centrifuged at 48,000×g for 30 min at 4° C. and the pellet resuspended in 20 ml HEPES-NaOH (20 mM), pH 7.4 containing 0.1 mM EDTA (buffer A), and homogenized with a Polytron at 10,000 rpm for 10 s. The homogenate was then centrifuged at 48,000×g for 30 min at 4° C. and the pellet resuspended in 20 ml buffer A, and homogenized with a Polytron at 10,000 rpm for 10 s. Protein concentration was determined by the method of Pierce (Rockford, Ill.). The homogenate was then centrifuged at 48,000×g for 10 min at 4° C., resuspended in HEPES-NaOH (20 mM), pH 7.0 including MgCl2 (10 mM) and […] homogenized with a Polytron at 10,000 rpm for 10 s.
# Binding assay was performed at 4° C. in a final volume of 1 ml, and with an incubation time of 30 min. […] Non-specific binding was defined as the amount of [^3H]-rac-2-(1,2,3,4-tetrahydro-1-naphthyl)-2-imidazoline bound in the presence of the appropriate unlabelled ligand (10 μM). Competing ligands were tested in a wide range of concentrations (10 pM-30 μM). […] Each experiment was performed in duplicate. Al incubations were terminated by rapid filtration through UniFilter-96 plates (Packard Instrument Company) and glass filter GF/C, pre-soaked for at least 2 h in polyethylenimine 0.3%, and using a Filtermate 96 Cell Harvester (Packard Instrument Company). The tubes and filters were then washed 3 times with 1 ml aliquots of cold buffer B. Filters were not dried and soaked in Ultima gold (45 μl/well, Packard Instrument Company) and bound radioactivity was counted by a TopCount Microplate Scintillation Counter (Packard Instrument Company).
# T1 sequence (Q923Y8 whole entry): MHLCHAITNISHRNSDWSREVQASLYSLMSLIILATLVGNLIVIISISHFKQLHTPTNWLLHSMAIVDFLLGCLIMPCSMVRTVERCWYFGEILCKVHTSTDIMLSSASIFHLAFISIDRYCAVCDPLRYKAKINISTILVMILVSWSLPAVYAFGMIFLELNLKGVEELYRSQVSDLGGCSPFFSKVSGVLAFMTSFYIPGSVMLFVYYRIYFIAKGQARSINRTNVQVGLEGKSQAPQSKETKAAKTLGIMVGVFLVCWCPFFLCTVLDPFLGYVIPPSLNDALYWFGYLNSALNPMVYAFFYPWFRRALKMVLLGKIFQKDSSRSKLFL
row,Compound,Ki [µM]
1,"Brc1ccccc1CC1=NCCN1 [Example 124, 2-(2-Bromo-benzyl)-4,5-dihydro-1H-imidazole]",0.044
2,"Cc1cccc(Br)c1CC1=NCCN1 [Example 57, 2-(2-Bromo-6-methyl-benzyl)-4,5-dihydro-1H-imidazole]",0.029
3,"Cc1cc(C)c(C)c(Cc2ncc[nH]2)c1C [Example 71, 2-(2,3,5,6-Tetramethyl-benzyl)-1H-imidazole]",0.01
4,"[3H]c1ccc(CC)c(Cc2ncc[nH]2)c1CC [Example 112, 2-(2,6-Diethyl-3-tritio-benzyl)-1H-imidazole]",0.025
5,"COc1ccc2ccccc2c1CC1=NCCN1 [Example 149, 2-(2-Methoxy-naphthalen-1-ylmethyl)-4,5-dihydro-1H-imidazole]",0.012
6,"CCc1ccc(Br)c(CC)c1Cc1ncc[nH]1 [Example 77, 2-(3-Bromo-2,6-diethyl-benzyl)-1H-imidazole]",0.026
7,"Cc1sc(C)c(Cc2ncc[nH]2)c1C [Example 110, 2-(2,4,5-Trimethyl-thiophen-3-ylmethyl)-1H-imidazole]",0.021
8,"CCc1ccccc1CC1=NCCN1 [Example 54, 2-(2-Ethyl-benzyl)-4,5-dihydro-1H-imidazole]",0.016
9,"Clc1cccc(CC2=NCCN2)c1Cl [Example 17, 2-(2,3-Dichloro-benzyl)-4,5-dihydro-1H-imidazole]",0.021
10,"CCc1cccc(C(C)C)c1CC1=NCCN1 [Example 12, 2-(2-Ethyl-6-isopropyl-benzyl)-4,5-dihydro-1H-imidazole]",0.03
11,"CCc1cc(OC)cc(CC)c1Cc1ncc[nH]1 [Example 210, 2-(2,6-Diethyl-4-methoxy-benzyl)-1H-imidazole]",0.048
12,"CCc1ccc(Oc2ccccc2)c(CC)c1Cc1ncc[nH]1 [Example 220, 2-(2,6-Diethyl-3-phenoxy-benzyl)-1H-imidazole]",0.013
13,"COc1cc(C)c(CC2=NCCN2)cc1C [Example 33, 2-(4-Methoxy-2,5-dimethyl-benzyl)-4,5-dihydro-1H-imidazole hydrochloride]",0.014
14,"CCc1ccc(Cl)c(CC)c1CC1=NCCN1 [Example 196, 2-(3-Chloro-2,6-diethyl-benzyl)-4,5-dihydro-1H-imidazole]",0.023
15,"COc1cc(Br)c(C)c(CC2=NCCN2)c1 [Example 58, 2-(3-Bromo-5-methoxy-2-methyl-benzyl)-4,5-dihydro-1H-imidazole]",0.03
16,"Clc1ccc(CC2=NCCN2)cc1Cl [Example 121, 2-(3,4-Dichloro-benzyl)-4,5-dihydro-1H-imidazole]",0.023
17,"c1ccc2cc(CC3=NCCN3)ccc2c1 [Example 141, 2-Naphthalen-2-ylmethyl-4,5-dihydro-1H-imidazole]",0.029
18,"Cc1cc(C)c(C)c(CC2=NCCN2)c1C [Example 116, 2-(2,3,5,6-Tetramethyl-benzyl)-4,5-dihydro-1H-imidazole]",0.008
19,"c1ccc(C2CC2)c(CC2=NCCN2)c1 [Example 56, 2-(2-Cyclopropyl-benzyl)-4,5-dihydro-1H-imidazole]",0.025
20,"c1ccc2c(CC3=NCCN3)csc2c1 [Example 143, 2-Benzo[b]thiophen-3-ylmethyl-4,5-dihydro-1H-imidazole]",0.004
21,"4-Tritio-2-naphthalen-1-ylmethyl-4,5-dihydro-1H-imidazole [Example 113]",0.007

row,Compound,Ki [µM]
1,"c1cc(CC2=NCCN2)c2occc2c1 [Example 107, 2-Benzofuran-7-ylmethyl-4,5-dihydro-1H-imidazole]",0.022
2,"CCc1ccc(F)c(CC)c1Cc1ncc[nH]1 [Example 202, 2-(2,6-Diethyl-3-fluoro-benzyl)-1H-imidazole]",0.034
3,"CCc1ccc(OC)c(CC)c1CC1=NCCN1 [Example 206, 2-(2,6-Diethyl-3-methoxy-benzyl)-4,5-dihydro-1H-imidazole]",0.038
4,"COc1cccc(C)c1CC1=NCCN1 [Example 10, 2-(2-Methoxy-6-methyl-benzyl)-4,5-dihydro-1H-imidazole]",0.023
5,"Cc1cc(C(C)(C)C)cc(C)c1CC1=NCCN1 [Example 114, 2-(4-tert-Butyl-2,6-dimethyl-benzyl)-4,5-dihydro-1H-imidazole, reference compound]",0.006
6,"CC(C1=NCCN1)c1ccc(Cc2ccccc2)cc1 (racemic) [Example 158, rac-2-[1-(4-Benzyl-phenyl)-ethyl]-4,5-dihydro-1H-imidazole hydrochloride]",0.021
7,"Clc1cccc(I)c1CC1=NCCN1 [Example 187, 2-(2-Chloro-6-iodo-benzyl)-4,5-dihydro-1H-imidazole]",0.016
8,"Cc1c(C)c(C)c(Cc2ncc[nH]2)c(C)c1C [Example 72, 2-Pentamethylphenylmethyl-1H-imidazole]",0.017
9,"COc1cccc(CC2=NCCN2)c1OC [Example 122, 2-(2,3-Dimethoxy-benzyl)-4,5-dihydro-1H-imidazole]",0.025
10,"Cc1ccc2ccccc2c1CC1=NCCN1 [Example 154, 2-(2-Methyl-naphthalen-1-ylmethyl)-4,5-dihydro-1H-imidazole]",0.01
11,"Cc1cccc(C(C)C2=NCCN2)c1C (racemic) [Example 18, rac-2-[1-(2,3-Dimethyl-phenyl)-ethyl]-4,5-dihydro-1H-imidazole hydrochloride]",0.027
12,"CCc1cccc(C)c1CC1=NCCN1 [Example 11, 2-(2-Ethyl-6-methyl-benzyl)-4,5-dihydro-1H-imidazole]",0.007
13,"CCOc1cc(CC)c(Cc2ncc[nH]2)c(CC)c1 [Example 215, 2-(4-Ethoxy-2,6-diethyl-benzyl)-1H-imidazole]",0.029
14,"CCc1ccc(Br)c(CC)c1CC1=NCCN1 [Example 32, 2-(3-Bromo-2,6-diethyl-benzyl)-4,5-dihydro-1H-imidazole]",0.005
15,"CCc1cc(Oc2ccccc2)cc(CC)c1Cc1ncc[nH]1 [Example 219, 2-(2,6-Diethyl-4-phenoxy-benzyl)-1H-imidazole]",0.012
16,"Cc1cc(C)c(CC2=NCCN2)c(C)c1 [Example 118, 2-(2,4,6-Trimethyl-benzyl)-4,5-dihydro-1H-imidazole, reference compound]",0.017
17,"Cc1ccc2ccoc2c1CC1=NCCN1 [Example 106, 2-(6-Methyl-benzofuran-7-ylmethyl)-4,5-dihydro-1H-imidazole]",0.017
18,"COc1cc(Br)c(CC2=NCCN2)cc1OC [Example 34, 2-(2-Bromo-4,5-dimethoxy-benzyl)-4,5-dihydro-1H-imidazole hydrochloride]",0.031
19,"COc1cc(C)c(Cc2ncc[nH]2)c(C)c1 [Example 73, 2-(4-Methoxy-2,6-dimethyl-benzyl)-1H-imidazole]",0.049
20,"CCc1c(Cl)ccc(F)c1CC1=NCCN1 [Example 198, 2-(3-Chloro-2-ethyl-6-fluoro-benzyl)-4,5-dihydro-1H-imidazole]",0.036
21,"c1cc2ccc(CC3=NCCN3)cc2o1 [Example 170, 2-Benzofuran-6-ylmethyl-4,5-dihydro-1H-imidazole hydrochloride]",0.026

# Same assay, conditions: radioligand used in the TAAR1 binding assay; species not given; read-out: calculated Kd value of the radioligand
row,Compound,Kd [µM]
1,"c1ccc2c(c1)CCCC2C1=NCCN1 (racemic) [[^3H]-rac-2-(1,2,3,4-tetrahydro-1-naphthyl)-2-imidazoline, reference compound]",0.06
